The values that follow come from patent publication US11781984B2, “Fluorescent method to quantify copper or platinum based on catalysis” (University of Pittsburgh—Of the Commonwealth System of …, priority 2018, dated 2023).

Structures can show the parent of a compound that is named as a salt.

A short description of data set [1]: Depropargylation of PPE with various metals and ligands (combinatorial screen). The settings on record: Cu^+ and Cu^2+ in the presence of ligand, 1.2 M pH 7.0 phosphate buffer/DMSO. As for the experimental part:
All fluorescence measurements were obtained using a Modulus II Microplate Multimode Reader. Fluorescence was measured after exciting samples with 490 nm light and emission was measured between 510-570 nm. All fluorescence measurements were obtained at room temperature. Metals and ligands were combinatorially screened in the presence of Propargyl Pittsburgh Green ether (PPE) to determine which metals and ligands facilitated the depropargylation reaction. Solid AgNO3 and Sr(NO3)2 were dissolved in 5% HNO3 (TraceMetal Grade) to a final concentration of 10 mM. AuCl3, CdCl2, CeCl3, COCl2, CuCl, CuCl2, […]7, FeSO4, FeCl3, HgCl2, MgCl2, KMnO4 NiCl2, Pb(OAc)4, Rh(OAc)2, RhCl3, RuCl3, and ZnCl2 were dissolved in 3% HCl (TraceMetal Grade) to a final concentration of 10 mM. Wilkinson's catalyst, as a source of Rh(I), was dissolved in DMSO to a final concentration of 5 mM. RuCl2(p-cymene) dimer was dissolved in DMSO to a final concentration of 5 mM (10 mM with respect to the monomer). Standard solutions of 1000 ppm Pt^2+ in 3% HCl and 1000 ppm Pd^2+ in 5% HNO3 were used. […] A mixture containing 1.2 M pH 7.0 phosphate buffer (177.2 mL), DMSO (19.42 mL), and 8.0 mM PPE (556 μL) was separated into 37 aliquots. […] These solutions containing the probe and ligand (180 μL), termed working solutions, were transferred to a black 96-well plate. The metal solutions were diluted to 10 μM using ultrapure water as the diluent. […] To analyze the data, each working solution was normalized, with the no metal sample normalized to 1.

Data set [2] is described as follows: Deallylation of APE with various metals and ligands (combinatorial screen). As to conditions: for facilitation of the deallylation of APE: ligand screen with APE. As for the experimental part:
In separate vials, 20-30 mg of each ligand was dissolved in DMSO containing 250 ppm butylated hydroxyl toluene (BHT) to a final concentration of 20 mM ligand. Working solutions containing the ligands were prepared by mixing 1.23 M pH 7 phosphate buffer (177.2 mL), DMSO (19.424 mL), and 8.0 mM APE in DMSO (556 μL). Aliquots of this mixture (4.944 mL) were placed into 15 mL conical tubes and 20 mM ligands and 250 ppm BHT in DMSO (55.5 μL) were added. […] Metals used in the experiments included AgNO3, AuCl3, CdCl2.2.5H2O, CeCsl3.3H2O, CoCl2.6H2O, […]7, CuCl, CuCl2.2H2O, FeSO4, FeCl3, HgCl2, MgCl2.6H2O, K2MnO4, NiCl2, Pb(OAc)2, RhCl(PPh3)3, Rh(Oac)2 dimer, […] (45.5% Rh), dichloro(p-cymene)ruthenium(II), RuCl3, Sr(NO3)2, and ZnCl2. In separate vials, 10 mM metal solutions were prepared by mixing 5-20 mg of the listed metals with dilute acid; all metals were dissolved in 3% HCl (TraceMetal Grade), with the exception of AgNO3, Sr(NO3)3, RhCl(PPh3)3, and dichloro(p-cymene)ruthenium(II). AgNO3 and Sr(NO3)3 were dissolved in 5% HNO3 (TraceMetal Grade); RhCl(PPh3)3 and dichloro(p-cymene)ruthenium(II) were dissolved in DMSO and the working solutions were adjusted to account for the solvent. The metal solutions were then diluted to 100 μM in 3% HCl or 5% HNO3 (TraceMetal Grade) or DMSO. […] For Pd, the 9.4 mM standard (21 μL) was added to 5% HNO3 (1.98 mL, TraceMetal Grade). For Pt, the 5.1 mM standard (39 μL) was added to 3% HCl (1.96 mL, TraceMetal Grade). To perform the assay, 10 μM metal solutions (20 μL) were added to the prepared working solutions (180 μL). The fluorescence was measured immediately and again after allowing the reaction to proceed for 1 h and 2 h at 25° C.

Data set [3] in a line: Selectivity of optimized APE/TFPP method for platinum over palladium. As to conditions: optimized salts, pH and TFPP concentration; 10 μM metals, 20 μM APE, 200 μM TFPP, pH 7.8. As for the experimental part:
FIG. 21: Relative reactivities of metals (10 μM) to APE with TFPP. 20 μM APE, 200 μM TFPP, pH 7.8, 25° C., 10 min, n=3.
Increased temperatures accelerated the deallylation, opening an avenue for even lower detection limits if necessary.

Data set [4] is described as follows: Reactivity of strongly-ligated platinum drugs with APE and TFPP. The settings on record: 10 μM drug, 45° C., 1 h. As for the experimental part: We incubated carboplatin and oxaliplatin with APE and TFPP. […] Carboplatin and oxaliplatin were dissolved in DMSO. The solutions were diluted to a concentration of 100 μM in DMSO. 100 μM platinum drugs in DMSO or water (20 μL) were transferred to the wells of a black 96-well plate. The working solution was prepared by the addition of 1.2 M phosphate pH 7.8 buffer (17.60 mL), DMSO (1.43 mL), 800 μM APE in DMSO (550 μL), and 40 mM TFPP in 250 ppm BHT in DMSO (220 μL). The working solution (180 μL) was then transferred to the wells and the initial fluorescence was measured. The plate was then covered and allowed to incubate in a 45° C. oven for 1 h before the fluorescence was measured again.

The nature of data set [5]: Reactivity of platinum drugs after pre-incubation with LiCl or NaCl. The settings on record: 10 μM drug, 50 mM LiCl or NaCl, 20 μM APE, 400 μM TFPP, 25° C., 100 min. As for the experimental part: We pre-incubated the drugs with either LiCl or NaCl before adding APE and TFPP.0 or 100 μM cisplatin, carboplatin, or oxaliplatin in DMSO (100 μL) were added to centrifuge tubes. To these tubes, 0 or 1 M LiCl or NaCl in water (100 μL) was added. The solutions were then allowed to incubate at room temperature for 4 h. The working solution was made by the addition of 1.2 M phosphate pH 7.8 buffer (8.86 mL), DMSO (721 μL), 800 μM APE in DMSO (278 μL), and 20 mM TFPP in 250 ppm BHT in DMSO (111 μL). The working solution (180 μL) was then transferred to the wells of a black 96-well plate. The platinum drugs (20 μL) were then transferred to the wells and the fluorescence was measured every 5 min for 100 min.

Data set [6] in a line: Distribution of copper between water and CHCl3 in the presence of DMAPPP. Type of data set: physicochemical. The settings on record: pH 7 buffer / CHCl3 biphasic system, DMAPPP present vs absent. As for the experimental part: We questioned whether copper ions would be excreted from cells when bound to DMAPPP. As a model system, CuSO4 was suspended in a biphasic system (pH 7 buffer and CHCl3) in the presence or absence of DMAPPP. Three suspensions were prepared from these: 10 mM DMAPPP in CHCl3 (1.0 mL) and 5 mM CuSO4 in 1 mM phosphate pH 7.0 buffer (1.0 mL), CHCl3 (1.0 mL) and 5 mM CuSO4 in 1 mM phosphate pH 7.0 buffer (1.0 mL), and 10 mM DMAPPP in CHCl3 (1.0 mL) and 1 mM phosphate pH 7.0 buffer (1.0 mL). The suspensions were vortexed to ensure proper partitioning of the CuSO4 and DMAPPP. Aliquots of the aqueous and organic layers of each suspension (100 μL each) were then taken and evaporated. The residue following evaporation was resuspended in HBSS (100 μL).
The working solution was prepared by the addition of 50 mM pH 8.5 borate buffer (2.96 mL), EtOH (500 μL), 800 μM PPE in EtOH (100 μL), and 10 mM DMAPPP in DMSO (40 μL). The working solution (180 μL) was transferred to the wells of a black 96-well plate. The resuspended samples (20 μL) were then added to the wells and the fluorescence was measured.

A short description of data set [7]: Detection of platinum in different oxidation states (APE/TFPP). As to conditions: APE and TFPP, 25° C. As for the experimental part:
To determine whether our method depends on the oxidation state of platinum, we incubated the solution of APE and TFPP with a platinum(II) standard, K2PtCl4, K2PtCl6, or cisplatin for 10 min. Cisplatin (6.1 mg; 20 μmol) was dissolved in DMSO and diluted to a concentration of 10 μM. K2PtCl4 (5.6 mg; 13 μmol) and K2PtCl6 (6.8 mg; 14 μmol) were dissolved in water to a concentration of 10 μM. The Pt standard was diluted with ultrapure water to a concentration of 10 μM. The working solution was prepared by adding 1.2 M pH 7 phosphate buffer (8.86 mL), 800 μM APE in DMSO (278 μL), 20 mM TFPP and 250 ppm BHT in DMSO (111 μL), and DMSO (721 μL) in a 15-mL conical tube. The working solution (180 μL) and the Pt solutions (20 μL) were transferred in this order to black round-bottom 96-well plates. The reaction mixture was incubated at 25° C. for 1 h before the fluorescence was measured and reported. Average values and standard deviations are shown in FIG. 23 and “no Pt” is normalized to 1.

[8] abbreviates: Pt^2+ and APE in the presence of ligand.

`O=S(=O)([O-])c1cccc(P(c2ccccc2)c2ccccc2)c1.[Na+]` [Compound 2, 3-(diphenylphosphino)bezenesulfonic acid sodium salt]: the “fluorescence signals (depropargylation of PPE)” value (“fluorescence signals” below) in data set [1] was “significantly increased the fluorescence signals”.

Turning to `O=S(=O)(O)c1cccc(P(c2cc(C(F)(F)F)cc(C(F)(F)F)c2)c2cccc(S(=O)(=O)O)c2)c1` [Compound 12, bis(3-sulfonatophenyl)(3,5-di-trifluoromethylphenyl)phosphine disodium salt], the “facilitation of the deallylation of APE” value in data set [2] was “facilitated the deallylation”.

Consider `Fc1ccc(P(c2ccc(F)cc2)c2ccc(F)cc2)cc1` [Compound 13, tris(4-fluorophenyl)phosphine], for which the “rate relative to previously reported Pt-Ph3P catalysis” value in data set [2] (200 μM TFPP) came to 4 times. Moreover, in data set [2] (setting [8]), the “fluorescence signal relative to background signal” value is on record as 40 fold and the “fluorescence signal relative to the corresponding signal from Pd^2+” value is listed as 10 fold. Further, in data set [2], the “facilitation of the deallylation of APE” value was “facilitated the deallylation”. Moreover, in data set [3], the “selectivity for platinum over palladium” value came to 14 times.

For `O=C1[O][Pt]2([NH][C@@H]3CCCC[C@H]3[NH]2)[O]C1=O` [oxaliplatin], the “reaction with APE and TFPP compared to no platinum” value in data set [4] is “little reaction”. Also, the “effect of pre-incubation with LiCl or NaCl on detection” value (from here on “effect of pre-incubation”) in data set [5] is “did not improve the detection”.

With `N.N.O=C([O-])C1(C(=O)[O-])CCC1.[Pt+2]` [carboplatin], the “reaction with APE and TFPP compared to no platinum” value in data set [4] was “little reaction”. Also, the “effect of pre-incubation” value in data set [5] is reported as “increased fluorescence”.

Consider `CN(C)c1ccc(P(c2ccccc2)c2ccccc2)cc1` [Compound 9, 4-(dimethylamino)phenyl-diphenylphosphine], for which the “fluorescence signals” value in data set [1] was “greatly increased the fluorescence signals”. Further, the “copper concentration in the organic phase” value in data set [6] is reported as “did not increase”.

In the case of `N.N.[Cl][Pt][Cl]` [cisplatin], the “reactivity of platinum species (fluorescence signal)” value in data set [7] is “exhibited reactivity, although it was lower than the inorganic species”. Moreover, in data set [5], the “effect of pre-incubation” value is given as “did not improve the detection”.

`FC(F)(F)c1ccc(P(c2ccc(C(F)(F)F)cc2)c2ccc(C(F)(F)F)cc2)cc1` [Compound 19, tris(4-trifluoromethylphenyl)phosphine]: the “facilitation of the deallylation of APE” value in data set [2] is listed as “did not facilitate the deallylation”.

Consider `COc1ccc(P(c2ccc(OC)cc2)c2ccc(OC)cc2)cc1` [Compound 15, tris(4-methoxyphenyl)phosphine], for which the “fluorescence signals” value in data set [1] is recorded as “significantly increased the fluorescence signals”. Besides, the “facilitation of the deallylation of APE” value in data set [2] is recorded as “did not facilitate the deallylation”.

Regarding `Cc1ccc(P(c2ccc(C)cc2)c2ccc(C)cc2)cc1` [Compound 18, tri-p-tolylphosphine], the “fluorescence signals” value in data set [1] is reported as “significantly increased the fluorescence signals”. Besides, the “facilitation of the deallylation of APE” value in data set [2] is on record as “facilitated the deallylation”.

As for `c1ccc(P(c2ccccc2)c2ccccc2)cc1` [Compound 34, triphenylphosphine], the “fluorescence signals” value in data set [1] is “significantly increased the fluorescence signals”.
